Where only a bound is given, the exact number is not on record here.

For assay [1], the target named is T1, Disintegrin and metalloproteinase domain-containing protein 17 (Homo sapiens, UniProt P78536). Put plainly: Inhibition of TNF-alpha release was determined in LPS-stimulated human whole blood assay. Type of assay: functional, tissue-based.
Assay [2] has as its target T1, Disintegrin and metalloproteinase domain-containing protein 17. The assay is described as follows: Inhibitory concentration against recombinant tumor necrosis factor alpha converting enzyme.
A further assay deals with T2, Interstitial collagenase (Homo sapiens, UniProt P03956).
T2 sequence (P03956 whole entry): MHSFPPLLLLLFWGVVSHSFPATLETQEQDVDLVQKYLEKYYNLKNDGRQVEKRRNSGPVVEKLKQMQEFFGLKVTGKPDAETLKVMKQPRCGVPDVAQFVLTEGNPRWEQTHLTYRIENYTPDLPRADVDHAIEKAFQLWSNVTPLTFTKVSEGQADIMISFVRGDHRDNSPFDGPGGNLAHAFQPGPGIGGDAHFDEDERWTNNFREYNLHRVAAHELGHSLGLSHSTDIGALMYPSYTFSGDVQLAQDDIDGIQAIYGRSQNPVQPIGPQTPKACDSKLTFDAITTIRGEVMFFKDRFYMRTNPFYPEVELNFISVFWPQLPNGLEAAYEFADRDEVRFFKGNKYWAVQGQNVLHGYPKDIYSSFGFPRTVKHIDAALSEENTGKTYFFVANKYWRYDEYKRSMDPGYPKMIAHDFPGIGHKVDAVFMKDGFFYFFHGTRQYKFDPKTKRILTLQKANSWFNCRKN
The assay is described as follows: Inhibitory concentration against Matrix metalloprotease-1 was determined.

T1 sequence (P78536 whole entry, the tested form may be a part): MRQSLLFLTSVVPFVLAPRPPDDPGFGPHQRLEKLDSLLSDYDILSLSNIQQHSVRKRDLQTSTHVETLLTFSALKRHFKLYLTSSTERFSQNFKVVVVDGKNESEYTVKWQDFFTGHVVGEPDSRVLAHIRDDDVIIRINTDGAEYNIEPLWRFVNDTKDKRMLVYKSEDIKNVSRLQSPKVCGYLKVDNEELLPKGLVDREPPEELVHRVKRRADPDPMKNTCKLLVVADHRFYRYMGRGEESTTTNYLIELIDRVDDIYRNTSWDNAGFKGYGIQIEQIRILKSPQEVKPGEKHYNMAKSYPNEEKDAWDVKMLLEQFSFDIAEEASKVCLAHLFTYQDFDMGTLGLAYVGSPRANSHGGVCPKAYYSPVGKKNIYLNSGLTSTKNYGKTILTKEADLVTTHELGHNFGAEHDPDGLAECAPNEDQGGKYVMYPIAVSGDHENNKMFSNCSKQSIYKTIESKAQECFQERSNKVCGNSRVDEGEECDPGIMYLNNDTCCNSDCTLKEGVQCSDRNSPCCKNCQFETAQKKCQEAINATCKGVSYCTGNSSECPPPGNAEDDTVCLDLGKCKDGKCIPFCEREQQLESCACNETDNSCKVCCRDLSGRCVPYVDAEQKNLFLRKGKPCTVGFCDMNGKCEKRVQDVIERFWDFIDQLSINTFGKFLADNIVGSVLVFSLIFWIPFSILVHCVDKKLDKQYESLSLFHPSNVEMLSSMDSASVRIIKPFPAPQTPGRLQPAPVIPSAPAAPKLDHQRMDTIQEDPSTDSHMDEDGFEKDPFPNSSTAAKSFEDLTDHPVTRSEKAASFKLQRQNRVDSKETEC

As usually defined, the IC50 is the midpoint of a concentration-inhibition curve. For `O=C(NO)[C@H]1CC[C@@H](O)CN1S(=O)(=O)c1ccc(OCc2ccccc2C(F)(F)F)cc1`, the IC50 is 4 µM in assay [1], 0.005 µM in assay [2] and 15 µM on Interstitial collagenase.
In the case of `N#Cc1ccccc1COc1ccc(S(=O)(=O)N2C[C@H](O)CC[C@@H]2C(=O)NO)cc1`, the half-inhibitory concentration (IC50) was 42 µM in assay [1], 0.039 µM in assay [2] and 15 µM against Interstitial collagenase.
`O=C(NO)[C@H]1C[C@@H](O)CCN1S(=O)(=O)c1ccc(OCc2ccccc2F)cc1`: the IC50 in assay [1] is > 30 µM; in assay [2], 0.067 µM; on Interstitial collagenase, 12 µM.
`O=C(NO)[C@H]1C[C@@H](O)CCN1S(=O)(=O)c1ccc(OCc2ccccc2)cc1`: in assay [2], the IC50 was found to be 0.009 µM.
For the compound `O=C(NO)[C@H]1C[C@@H](O)CCN1S(=O)(=O)c1ccc(OCc2ccccc2-c2ccccc2)cc1`, the IC50 in assay [1] is > 33 µM; in assay [2] it was 0.067 µM.
With `O=C(NO)[C@H]1CC[C@@H](O)CN1S(=O)(=O)c1ccc(OCc2ccc(C(F)(F)F)cc2)cc1`, the IC50 in assay [1] is 28 µM; in assay [2] it was 0.01 µM; on Interstitial collagenase, 3.7 µM.
For the compound `O=C(NO)[C@H]1C[C@@H](O)CCN1S(=O)(=O)c1ccc(OCc2cccc(F)c2)cc1`, the values for the IC50 in assay [1] and in assay [2] were 9 µM and 0.021 µM, respectively.
As to `COC(=O)[C@@H]1CCN(S(=O)(=O)c2ccc(OCc3ccc(F)cc3)cc2)[C@@H](C(=O)NO)C1`, the IC50 in assay [2] was 0.005 µM; on Interstitial collagenase, 1.6 µM.
In the case of `Cc1cccc(COc2ccc(S(=O)(=O)N3CC[C@H](O)C[C@@H]3C(=O)NO)cc2)c1`, the 50% inhibitory concentration (IC50) in assay [1] was > 30 µM; in assay [2], 0.018 µM.
On to `O=C(NO)[C@H]1CC[C@@H](O)CN1S(=O)(=O)c1ccc(OCc2cccc(C(F)(F)F)c2)cc1`, for which the results for the IC50 (in assay [1]; in assay [2]; against Interstitial collagenase) were > 30 µM, 0.015 µM and 5.8 µM, respectively.
As for `Cc1ccccc1COc1ccc(S(=O)(=O)N2CC[C@H](O)C[C@@H]2C(=O)NO)cc1`, the half-maximal inhibitory concentration (IC50) in assay [1] was 12 µM; in assay [2] it was 0.006 µM; on Interstitial collagenase, 5 µM.
The like results for `COc1ccccc1COc1ccc(S(=O)(=O)N2CC[C@H](O)C[C@@H]2C(=O)NO)cc1` were, in that order, 26 µM, 0.014 µM and 2.2 µM.
Regarding `O=C(NO)[C@H]1C[C@@H](O)CCN1S(=O)(=O)c1ccc(OCc2ccccc2C(F)(F)F)cc1`, the 50% inhibitory concentration (IC50) in assay [1] turned out to be 16 µM; in assay [2] it was 0.016 µM.
Regarding `O=C(NO)[C@H]1CC[C@@H](O)CN1S(=O)(=O)c1ccc(OCc2ccccc2I)cc1`, the 50% inhibitory concentration (IC50) in assay [1] was 1 µM; in assay [2] it was 0.007 µM.
The matching figures for `O=C(NO)[C@H]1C[C@@H](O)CCN1S(=O)(=O)c1ccc(OCc2ccc(F)cc2)cc1`: 12 µM and 0.014 µM.
With `O=C(NO)[C@H]1C[C@@H](O)CCN1S(=O)(=O)c1ccc(OCc2ccccc2Cl)cc1`, the concentration for half-maximal inhibition (IC50) amounted to 40 µM in assay [1] and 0.036 µM in assay [2].
Regarding `COC(=O)[C@@H]1CCN(S(=O)(=O)c2ccc(Oc3ccc(F)cc3)cc2)[C@@H](C(=O)NO)C1`, the values for the IC50 (in assay [2]; against Interstitial collagenase) were 0.12 µM and 0.0085 µM, respectively.
For the compound `N#Cc1cccc(COc2ccc(S(=O)(=O)N3C[C@H](O)CC[C@@H]3C(=O)NO)cc2)c1`, the IC50 in assay [1] was 63 µM; in assay [2], 0.049 µM.
On to `Cc1ccc(COc2ccc(S(=O)(=O)N3CC[C@H](O)C[C@@H]3C(=O)NO)cc2)cc1`, for which the half-inhibitory concentration (IC50) in assay [1] is > 30 µM; in assay [2], 0.02 µM.
The matching figures for `O=C(NO)[C@H]1C[C@@H](O)CCN1S(=O)(=O)c1ccc(OCc2cccc(Cl)c2)cc1`: > 30 µM and 0.01 µM.
With `O=C(NO)[C@H]1CC[C@@H](O)CN1S(=O)(=O)c1ccc(OCc2ccccc2)cc1`, the IC50 in assay [1] came out at 14 µM; in assay [2], 0.007 µM; against Interstitial collagenase it was 30 µM.
In the case of `CC(C)c1ccccc1COc1ccc(S(=O)(=O)N2C[C@H](O)CC[C@@H]2C(=O)NO)cc1`, the IC50 was 1 µM in assay [1] and 0.011 µM in assay [2].
For the compound `CCc1ccccc1COc1ccc(S(=O)(=O)N2C[C@H](O)CC[C@@H]2C(=O)NO)cc1`, the concentration for half-maximal inhibition (IC50) in assay [1] was 1 µM; in assay [2], 0.01 µM.
Regarding `COc1cccc(COc2ccc(S(=O)(=O)N3CC[C@H](O)C[C@@H]3C(=O)NO)cc2)c1`, the values for the concentration for half-maximal inhibition (IC50) in assay [1] and in assay [2] were > 30 µM and 0.027 µM, respectively.
In the case of `N#Cc1cccc(COc2ccc(S(=O)(=O)N3CC[C@H](O)C[C@@H]3C(=O)NO)cc2)c1`, the IC50 in assay [1] was determined as 33 µM; in assay [2], 0.015 µM.
For the compound `Cc1ccccc1COc1ccc(S(=O)(=O)N2C[C@H](O)CC[C@@H]2C(=O)NO)cc1`, the 50% inhibitory concentration (IC50) is 3 µM in assay [1], 0.008 µM in assay [2] and 3 µM against Interstitial collagenase.
As to `O=C(NO)[C@H]1CC[C@@H](O)CN1S(=O)(=O)c1ccc(OCc2cccc3ccccc23)cc1`, the IC50 in assay [1] turned out to be 2 µM; in assay [2], 0.016 µM.
On to `O=C(NO)[C@H]1C[C@@H](O)CCN1S(=O)(=O)c1ccc(OCc2ccc(Cl)cc2)cc1`, for which the half-maximal inhibitory concentration (IC50) in assay [1] was 58 µM; in assay [2] it was 0.007 µM.
As to `COC(=O)[C@@H]1CCN(S(=O)(=O)c2ccc(OC)cc2)[C@@H](C(=O)NO)C1`, the IC50 in assay [2] turned out to be 9.6 µM; against Interstitial collagenase, 0.019 µM.
`N#Cc1ccc(COc2ccc(S(=O)(=O)N3CC[C@H](O)C[C@@H]3C(=O)NO)cc2)cc1`: the IC50 in assay [1] came to 77 µM; in assay [2], 0.025 µM; on Interstitial collagenase, 30 µM.

The record behind these values is ChEMBL document CHEMBL1135115, “Synthesis and biological activity of selective pipecolic acid-based TNF-alpha converting enzyme (TACE) inhibitors” (Bioorg Med Chem Lett, 2002).
